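Each compound was tested at five concentrations against cells in 96-well plates for 48 hours. TGI marks complete inhibition of growth.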
Key:
Test in all cases: NCI tumour cell line growth inhibition, 48 h
[1] = tested on: 786-0 renal
[2] = tested on: A498 renal
[3] = tested on: A549 NSCLC
[4] = tested on: ACHN renal
[5] = tested on: CAKI-1 renal
[6] = tested on: CCRF-CEM leukemia
[7] = tested on: COLO 205 colon
[8] = tested on: DLD-1 colon
[9] = tested on: DMS 114 small cell lung
[10] = tested on: DMS 273 small cell lung
[11] = tested on: EKVX NSCLC
[12] = tested on: HCC-2998 colon
[13] = tested on: HCT-116 colon
[14] = tested on: HCT-15 colon
[15] = tested on: HL-60(TB) leukemia
[16] = tested on: HOP-18 NSCLC
[17] = tested on: HOP-62 NSCLC
[18] = tested on: HOP-92 NSCLC
[19] = tested on: HT29 colon
[20] = tested on: IGROV1 ovarian
[21] = tested on: K-562 leukemia
[22] = tested on: KM12 colon
[23] = tested on: KM20L2 colon
[24] = tested on: LOX IMVI melanoma
[25] = tested on: LXFL 529 NSCLC
[26] = tested on: M19-MEL melanoma
[27] = tested on: MALME-3M melanoma
[28] = tested on: MOLT-4 leukemia
[29] = tested on: NCI-H226 lung
[30] = tested on: NCI-H23 lung
[31] = tested on: NCI-H460 lung
[32] = tested on: NCI-H522 lung
[33] = tested on: OVCAR-3 ovarian
[34] = tested on: OVCAR-4 ovarian
[35] = tested on: OVCAR-5 ovarian
[36] = tested on: OVCAR-8 ovarian
[37] = tested on: RPMI-8226 leukemia
[38] = tested on: RXF-631 renal
[39] = tested on: SF-268 CNS
[40] = tested on: SF-295 CNS
[41] = tested on: SF-539 CNS
[42] = tested on: SK-MEL-2 melanoma
[43] = tested on: SK-MEL-28 melanoma
[44] = tested on: SK-MEL-5 melanoma
[45] = tested on: SK-OV-3 ovarian
[46] = tested on: SN12C renal
[47] = tested on: SNB-19 CNS
[48] = tested on: SNB-75 CNS
[49] = tested on: SNB-78 CNS
[50] = tested on: SW-620 colon
[51] = tested on: TK-10 renal
[52] = tested on: U251 CNS
[53] = tested on: UACC-257 melanoma
[54] = tested on: UACC-62 melanoma
[55] = tested on: UO-31 renal
[56] = tested on: XF 498 CNS

Measured: TGI

CN(C)c1nnnn1-c1c(N)n(C)c(=O)n(C)c1=O
> 100 µM: all assays above
